{"source": "patent US20050042301A1", "about": "“Method of use of Xenon-133 for the treatment of AIDS, other viral and non-viral infections” (priority 2003, published 2005)", "origin": "cited, not measured here", "details": "stable xenon; b17 says distributed in the body, b20 says formed in vitro"}
{"smiles": "[131Xe]", "note": "[Xe-131, Xenon-131]", "values": [{"measurement": "size range of gas microbubbles (diameter)", "result": "5-10 microns"}]}
